In the supplement of paper PMC4862054:

System: MFM-223
Assay: normalised response (% of control), CellTiter-Glo; higher = more viable cells (100 = DMSO, 0 = benzethonium chloride kill control)
Details: incubation time: 72 h
Description: (§1)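 DSRT, 72 h incubation, CellTox Green / CellTiter-Glo readout. Signal is normalised to DMSO and benzethonium chloride controls. Value is the normalised response at dose 3.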

Compound	normalised response
CC1(C)CCC(c2ccc(Cl)cc2)=C(CN2CCN(c3ccc(C(=O)NS(=O)(=O)c4ccc(N[C@H](CCN5CCOCC5)CSc5ccccc5)c(S(=O)(=O)C(F)(F)F)c4)cc3)CC2)C1 [Navitoclax] (100 nM)	96%
CC(C)n1cnc2c(NCCc3ccc(O)cc3)nc(-c3csc4ccccc34)nc21 [StemRegenin 1] (100 nM)	104%

System: CAL-148
Assay: as above
Details: incubation time: 72 h
Description: as §1

Compound	normalised response
CCn1c(C(=O)N(C2CC2)C2CC2)cc2c3c(ncn3C)c(Nc3cc(C)n(C)n3)nc21 (100 nM)	103%
COc1ccc(S(=O)(=O)Nc2cccnc2Nc2ccc(O)cc2)cc1 [ABT-751] (100 nM)	96.6%
CCNC(=O)CCC/C=C\C[C@@H]1[C@@H](/C=C/[C@@H](O)CCc2ccccc2)[C@H](O)C[C@@H]1O [Bimatoprost] (55 nM)	95.8%
COc1cc(Nc2c(C#N)cnc3cc(OCCCN4CCN(C)CC4)c(OC)cc23)c(Cl)cc1Cl [Bosutinib] (100 nM)	104%
CCN(CC)CCCC(C)Nc1ccnc2cc(Cl)ccc12 (stereo not given) [Chloroquine] (1000 nM)	86.9%
CC(C)(C)c1nc(-c2cccc(NS(=O)(=O)c3c(F)cccc3F)c2F)c(-c2ccnc(N)n2)s1 [Dabrafenib] (25 nM)	108%
CO[C@@]12[C@H](COC(N)=O)C3=C(C(=O)C(C)=C(N)C3=O)N1C[C@@H]1N[C@@H]12 [Mitomycin C] (100 nM)	89.6%
CC1(C)CCC(c2ccc(Cl)cc2)=C(CN2CCN(c3ccc(C(=O)NS(=O)(=O)c4ccc(N[C@H](CCN5CCOCC5)CSc5ccccc5)c(S(=O)(=O)C(F)(F)F)c4)cc3)CC2)C1 [Navitoclax] (100 nM)	88%
CC(C)n1cnc2c(NCCc3ccc(O)cc3)nc(-c3csc4ccccc34)nc21 [StemRegenin 1] (100 nM)	103%

System: BT-549
Assay: as above
Details: incubation time: 72 h
Description: as §1

Compound	normalised response
CCn1c(C(=O)N(C2CC2)C2CC2)cc2c3c(ncn3C)c(Nc3cc(C)n(C)n3)nc21 (100 nM)	110%
COc1ccc(S(=O)(=O)Nc2cccnc2Nc2ccc(O)cc2)cc1 [ABT-751] (100 nM)	100%
CCNC(=O)CCC/C=C\C[C@@H]1[C@@H](/C=C/[C@@H](O)CCc2ccccc2)[C@H](O)C[C@@H]1O [Bimatoprost] (55 nM)	98.3%
COc1cc(Nc2c(C#N)cnc3cc(OCCCN4CCN(C)CC4)c(OC)cc23)c(Cl)cc1Cl [Bosutinib] (100 nM)	103%
CCN(CC)CCCC(C)Nc1ccnc2cc(Cl)ccc12 (stereo not given) [Chloroquine] (1000 nM)	103%
CC(C)(C)c1nc(-c2cccc(NS(=O)(=O)c3c(F)cccc3F)c2F)c(-c2ccnc(N)n2)s1 [Dabrafenib] (25 nM)	104%
CO[C@@]12[C@H](COC(N)=O)C3=C(C(=O)C(C)=C(N)C3=O)N1C[C@@H]1N[C@@H]12 [Mitomycin C] (100 nM)	96.5%
CC1(C)CCC(c2ccc(Cl)cc2)=C(CN2CCN(c3ccc(C(=O)NS(=O)(=O)c4ccc(N[C@H](CCN5CCOCC5)CSc5ccccc5)c(S(=O)(=O)C(F)(F)F)c4)cc3)CC2)C1 [Navitoclax] (100 nM)	96.7%
CC(C)n1cnc2c(NCCc3ccc(O)cc3)nc(-c3csc4ccccc34)nc21 [StemRegenin 1] (100 nM)	99.2%

System: CAL-85-1
Assay: as above
Details: incubation time: 72 h
Description: as §1

Compound	normalised response
CCn1c(C(=O)N(C2CC2)C2CC2)cc2c3c(ncn3C)c(Nc3cc(C)n(C)n3)nc21 (100 nM)	100%
COc1ccc(S(=O)(=O)Nc2cccnc2Nc2ccc(O)cc2)cc1 [ABT-751] (100 nM)	96.9%
CCNC(=O)CCC/C=C\C[C@@H]1[C@@H](/C=C/[C@@H](O)CCc2ccccc2)[C@H](O)C[C@@H]1O [Bimatoprost] (55 nM)	92.4%
COc1cc(Nc2c(C#N)cnc3cc(OCCCN4CCN(C)CC4)c(OC)cc23)c(Cl)cc1Cl [Bosutinib] (100 nM)	98.3%
CCN(CC)CCCC(C)Nc1ccnc2cc(Cl)ccc12 (stereo not given) [Chloroquine] (1000 nM)	102%
CC(C)(C)c1nc(-c2cccc(NS(=O)(=O)c3c(F)cccc3F)c2F)c(-c2ccnc(N)n2)s1 [Dabrafenib] (25 nM)	96.6%
CO[C@@]12[C@H](COC(N)=O)C3=C(C(=O)C(C)=C(N)C3=O)N1C[C@@H]1N[C@@H]12 [Mitomycin C] (100 nM)	101%
CC1(C)CCC(c2ccc(Cl)cc2)=C(CN2CCN(c3ccc(C(=O)NS(=O)(=O)c4ccc(N[C@H](CCN5CCOCC5)CSc5ccccc5)c(S(=O)(=O)C(F)(F)F)c4)cc3)CC2)C1 [Navitoclax] (100 nM)	89.7%
CC(C)n1cnc2c(NCCc3ccc(O)cc3)nc(-c3csc4ccccc34)nc21 [StemRegenin 1] (100 nM)	98.8%

System: MDA-MB-231
Assay: as above
Details: incubation time: 72 h
Description: as §1

Compound	normalised response
CCn1c(C(=O)N(C2CC2)C2CC2)cc2c3c(ncn3C)c(Nc3cc(C)n(C)n3)nc21 (100 nM)	99.7%
COc1ccc(S(=O)(=O)Nc2cccnc2Nc2ccc(O)cc2)cc1 [ABT-751] (100 nM)	101%
CCNC(=O)CCC/C=C\C[C@@H]1[C@@H](/C=C/[C@@H](O)CCc2ccccc2)[C@H](O)C[C@@H]1O [Bimatoprost] (55 nM)	100%
COc1cc(Nc2c(C#N)cnc3cc(OCCCN4CCN(C)CC4)c(OC)cc23)c(Cl)cc1Cl [Bosutinib] (100 nM)	100%
CCN(CC)CCCC(C)Nc1ccnc2cc(Cl)ccc12 (stereo not given) [Chloroquine] (1000 nM)	98.1%
CC(C)(C)c1nc(-c2cccc(NS(=O)(=O)c3c(F)cccc3F)c2F)c(-c2ccnc(N)n2)s1 [Dabrafenib] (25 nM)	100%
CO[C@@]12[C@H](COC(N)=O)C3=C(C(=O)C(C)=C(N)C3=O)N1C[C@@H]1N[C@@H]12 [Mitomycin C] (100 nM)	93.5%
CC1(C)CCC(c2ccc(Cl)cc2)=C(CN2CCN(c3ccc(C(=O)NS(=O)(=O)c4ccc(N[C@H](CCN5CCOCC5)CSc5ccccc5)c(S(=O)(=O)C(F)(F)F)c4)cc3)CC2)C1 [Navitoclax] (100 nM)	91.4%
CC(C)n1cnc2c(NCCc3ccc(O)cc3)nc(-c3csc4ccccc34)nc21 [StemRegenin 1] (100 nM)	112%

System: SK-BR-3
Assay: as above
Details: incubation time: 72 h
Description: as §1

Compound	normalised response
CCn1c(C(=O)N(C2CC2)C2CC2)cc2c3c(ncn3C)c(Nc3cc(C)n(C)n3)nc21 (100 nM)	105%
COc1ccc(S(=O)(=O)Nc2cccnc2Nc2ccc(O)cc2)cc1 [ABT-751] (100 nM)	93%
